Where “and” joins values, the source holds several entries; their conditions need not be identical. Identical values can stand only once.
Each compound was assayed against Transforming acidic coiled-coil-containing protein 3 (Homo sapiens) (UniProt Q9Y6A5) (assay: ARNT/TACC3 interaction disruptors, potency, confirmation, biochemical, AlphaScreen, cherry-picked samples (AID 651703;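 note: TACC3 partner is the GST-tagged E629A mutant dimer; hits lower the signal meaning they disrupt ARNT binding to TACC3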)). Conditions: AlphaScreen His-ARNT PAS-B / GST-TACC3 binding, luminescence.
`O=C(c1ccccn1)N1CC[C@@H]2[C@H](CO)Nc3ccc(Br)cc3[C@@H]21` gave an AC50 of 24.1 µM.
`c1ccc(-c2cn3c(n2)CCc2ccc4cccnc4c2-3)cc1` was tested, and the AC50 was 21.2 µM.
With `O=C(N/N=C/c1cc(Cl)ccc1O)c1cccnc1` the AC50 was 7.68 µM.
`O=C(Nc1nccs1)c1cnccn1` showed an AC50 of 63.9 µM.
With `COc1ccccc1-c1nnc(NC(=O)c2cccc(N3C(=O)CCC3=O)c2)o1` the AC50 was 29 µM.
Work on `CCOc1ccc(C(=O)CCNC(Cc2cnc[nH]2)C(=O)O)cc1` (stereo not drawn) yielded an AC50 of 41.2 µM.
Work on `COc1cc(NS(=O)(=O)c2ccc(Nc3nc(-c4ccccn4)cs3)cc2)nc(OC)n1` yielded an AC50 of 17.3 µM.
`O=C(CSc1ccc(-c2ccccn2)nn1)NCc1ccccc1` was tested, and the AC50 was 4.18 µM.
Compound `O=C(N[C@H]1CC[C@@H](CCn2cc(-c3ccccn3)nn2)O[C@@H]1CO)c1ccncc1` has an AC50 of 15.8 µM.
`Cc1ncc(CO)c(/C=N/NC(=O)c2cc(Br)ccc2O)c1O` showed an AC50 of 8.86 µM.
`O=C(COC(=O)c1ccccn1)c1cccc(Br)c1` gave an AC50 of 11.8 µM.
`c1ccc(-c2nnc(-c3ccccn3)nc2NCCCN2CCOCC2)cc1` gave an AC50 of under 0.5 µM.
In the case of `O=C(COc1ccccc1F)Nc1nc(-c2ccccn2)cs1`, the AC50 is reported as 8.38 µM.
With `Cc1ccc(C(=O)Nc2nc(-c3ccccn3)cs2)s1` the AC50 was 4.78 µM.
For `COc1c(O)cccc1/C=N/NC(=O)Cn1ccnc1C`, the AC50 was 8.02 µM.
For `O=C(N[C@H]1CC[C@H](CCn2cc(-c3ccccn3)nn2)O[C@@H]1CO)c1cccnc1`, the AC50 was 9.74 µM.
`CCC(=O)NC(c1ccc(C)cc1)c1ccc2cccnc2c1O` (stereo not drawn) was tested, and the AC50 was 4.71 µM.
In the case of `CC1CCCC(C)N1/N=C/c1ccc([N+](=O)[O-])cc1` (stereo not drawn), the AC50 is reported as 17 µM.
With `O=C(O)C1CCCCC1C(=O)NCCCn1ccnc1` (stereo not drawn) the AC50 was 54.4 µM.
In the case of `CN(C)CCCNC(=O)c1ccc(-c2cc(O)c3ncccc3c2)cc1`, the AC50 is reported as 2.78 µM.
`OCC1CCN(Cc2ccc(O)c3ncccc23)CC1` showed an AC50 of under 0.5 µM.
`CC(=O)/C(=N\Nc1ccc(Cl)cc1Cl)Sc1cccc2cccnc12` gave an AC50 of 2.95 µM.
Compound `COc1cc(OC)cc(C(=O)Oc2c(CN3CCOCC3)cc(Cl)c3cccnc23)c1` has an AC50 of 31.1 µM.
With `Cc1cccc(C(=O)Nc2nnc(-c3ccco3)o2)c1` the AC50 was 5.86 µM.
Compound `CCN(CC)c1ccc(/C=N/N=C(N)N)c(O)c1` has an AC50 of 38.9 µM.
With `Cn1c(-c2ccc(Cl)cc2)cnc1N` the AC50 was 20.5 µM.
Work on `c1ccc(-c2nc3ccccc3[nH]2)nc1` yielded an AC50 of 44 µM.
`CC(=O)OC[C@H]1O[C@@H](Sc2cccc3cccnc23)[C@H](OC(C)=O)[C@@H](OC(C)=O)[C@H]1OC(C)=O` showed an AC50 of 11.5 µM.
`COC(=O)c1ccc(CSc2ccc3nnc(-c4ccccn4)n3n2)o1` was tested, and the AC50 was 17.4 µM.
For `CCCN(CCC)c1nc(-c2ccccn2)nc2ccccc12`, the AC50 was 15.5 µM.
With `CS(=O)(=O)c1cccc(-c2nnc(NC(=O)c3ccc(S(=O)(=O)N4CCCC4)cc3)o2)c1` the AC50 was 22.5 µM.
`CC1(C)Cc2c(sc3nc4n(-c5ccccc5)c(=O)c(CCC(=O)O)nn4c(=O)c23)CO1` showed an AC50 of 19.2 µM.
In the case of `CNc1ccc2nc3ccccc3[n+](C)c2c1`, the AC50 is reported as 29.9 µM.
Compound `CCO/C=C1/C(=O)N(Cc2ccccc2)C(=O)c2ccccc21` has an AC50 of 29 µM.
Compound `COCCn1c(-c2ccccc2)cnc1N` has an AC50 of 31.1 µM.
In the case of `C#CCOCCOCCOCCNc1nc(N2CCN(C(=O)[C@H](CC(N)=O)n3cc([C@@H](N)CC(N)=O)nn3)CC2)nc(N2CCN(C(=O)[C@H](CC(N)=O)n3cc([C@@H](N)CC(N)=O)nn3)CC2)n1`, the AC50 is reported as 47.1 µM.
`O=C(COc1ccccc1)Nc1nnc(-c2ccccc2)o1` was tested, and the AC50 was 16.5 µM.
Compound `O=C(COC(=O)c1ccc([N+](=O)[O-])s1)NCc1ccccc1` has an AC50 of 37 µM.
`O=c1[nH]c(N2CCOCC2)cc2ccccc12` was tested, and the AC50 was 63.8 µM.
In the case of `Cc1ccc(S(=O)(=O)NC(=O)c2cc(C)n(CCCn3ccnc3)c2C)cc1`, the AC50 is reported as 21.2 µM.
`O=C(CSc1ccc(-c2ccccn2)nn1)N1CCCC1` was tested, and the AC50 was 3.05 µM.
`O=S(=O)(N[C@H]1CC[C@H](CCn2cc(-c3ccccn3)nn2)O[C@H]1CO)c1cccc(Cl)c1` was tested, and the AC50 was 26.6 µM.
`Cc1ccc(NC(=O)CSc2ccc(-c3ccccn3)nn2)cc1F` showed an AC50 of 3.98 µM.
Work on `CCOc1ccccc1NC(=O)CN(c1ccc(OC)cc1)S(=O)(=O)c1c(C)[nH]c(=O)[nH]c1=O` yielded an AC50 of 10.5 µM.
`CC(Nc1nc(-c2ccccn2)nnc1-c1ccccc1)c1ccccc1` (stereo not drawn) showed an AC50 of 0.564 µM.
Work on `O=C(N[C@@H]1CC[C@H](CCn2cc(-c3ccccn3)nn2)O[C@@H]1CO)c1cccnc1` yielded an AC50 of 13.5 µM.
With `Cc1c(Cl)cccc1-c1ccc(CNCc2ccccn2)o1` the AC50 was 35.2 µM.
`C[C@@H]1CN([C@@H](C)CO)C(=O)Cc2cc(NC(=O)Nc3cccc4ccccc34)ccc2O[C@H]1CN(C)Cc1ccc(Oc2ccccc2)cc1` showed an AC50 of 18.4 µM.
In the case of `Cc1cccc(CNc2nc(-c3ccccn3)nnc2-c2ccccc2)c1`, the AC50 is reported as under 0.5 µM.
`Cc1ccsc1C(=O)Nc1nnc(-c2ccco2)o1` showed an AC50 of 9.04 µM.
`Oc1c(C(Nc2cccc(C(F)(F)F)c2)c2ccncc2)ccc2cccnc12` (stereo not drawn) was tested, and the AC50 was 0.575 µM.
Compound `Cc1cccc(S(=O)(=O)N[C@@H]2CC[C@@H](CCn3cc(-c4ccccn4)nn3)O[C@@H]2CO)c1` has an AC50 of 26.7 µM.
`N[C@H]1CC[C@H](CCn2cc(-c3ccccn3)nn2)O[C@@H]1CO` was tested, and the AC50 was 1.03 µM.
`O=C(N[C@H]1CC[C@H](CCn2cc(-c3ccccn3)nn2)O[C@H]1CO)c1cccnc1` showed an AC50 of 24.8 µM.
`COc1ccccc1N1CCN(Cc2ccc(O)c3ncccc23)CC1` was tested, and the AC50 was 0.669 µM and 2.18 µM.
Compound `Cc1ccc(C)c(S(=O)(=O)N2CCN(Cc3ccc(O)c4ncccc34)CC2)c1` has an AC50 of 5.27 µM.
For `C[C@H]1CN([C@@H](C)CO)C(=O)c2cccc(NC(=O)Nc3cccc4ccccc34)c2O[C@@H]1CN(C)S(=O)(=O)c1ccc(Cl)cc1`, the AC50 was 51.9 µM.
For `O=C(COC(=O)c1ccco1)Nc1nnc(-c2ccccc2)o1`, the AC50 was 24.8 µM.
`O=S(=O)(N[C@H]1CC[C@@H](CCn2cc(-c3ccccn3)nn2)O[C@@H]1CO)c1cccc(Cl)c1` showed an AC50 of 16.9 µM.
Compound `c1ccc(-c2cnc(-c3ccccn3)nn2)cc1` has an AC50 of 3.23 µM.
Work on `Cc1cccc(OCc2nc(-c3ccccn3)n[nH]2)c1` yielded an AC50 of 5.94 µM.
Work on `Cc1ccc(S(=O)(=O)N2CCOCC2)cc1NC(=O)CNCc1ccccn1` yielded an AC50 of 6.07 µM.
Work on `CN(C)C(=O)CSc1cccc2cccnc12` yielded an AC50 of 4.27 µM.
`O=C(CSc1ccc2nnc(-c3ccccn3)n2n1)NCc1ccco1` gave an AC50 of 9.49 µM.
With `O=C(CSc1nnc(CNC(=O)c2ccc(F)cc2)o1)Nc1nccs1` the AC50 was 61.9 µM.
With `Cc1cccc(C(=O)Nc2nnc(C3=COCCO3)o2)c1` the AC50 was 12.6 µM.
Compound `Cn1c(-c2ccccc2)cnc1Nc1nc(-c2ccccn2)nnc1-c1ccccc1` has an AC50 of 2.26 µM.
`O=S(=O)(c1ccccc1)N1C[C@@H]2[C@H](c3ccccc31)[C@H](CO)N2Cc1ccccn1` was tested, and the AC50 was 61.5 µM.
`Oc1ccc(CN2CCN(Cc3ccccc3)CC2)c2cccnc12` was tested, and the AC50 was 2.41 µM.
`O=C(CSc1ccc(-c2ccccn2)nn1)Nc1cccc(F)c1` was tested, and the AC50 was 1.16 µM.
Work on `Cc1ccc(S(=O)(=O)CCc2nnc(NC(=O)c3ccccn3)s2)cc1` yielded an AC50 of 3.01 µM.
For `CCN(CCCl)c1cc(CN(C)C)cc(NC(=O)c2ccc(C(=O)Nc3cc(CN(C)C)cc(N(CC)CCCl)c3)cc2)c1`, the AC50 was 1.92 µM.
Work on `O=C(N/N=C/c1c(O)ccc2ccccc12)c1ccc(CO)nc1` yielded an AC50 of 10.8 µM.
For `O=C(N/N=C\c1cccc([N+](=O)[O-])c1O)C1COc2ccccc2O1` (stereo not drawn), the AC50 was 14.7 µM.
In the case of `Oc1c(CN2CCN(c3ccc(F)cc3)CC2)cc(Cl)c2cccnc12`, the AC50 is reported as 2.5 µM.
With `COCc1cc(CN2CCN(C)CC2)c(O)c2ncccc12` the AC50 was 1.14 µM.
In the case of `O=C(NC[C@@H]1[C@H](c2ccccc2)[C@H](CO)N1Cc1ccccn1)C1CCC1`, the AC50 is reported as 28.2 µM.
Work on `CSCCC(=O)Nc1nc(-c2ccccn2)cs1` yielded an AC50 of 8.98 µM.
With `COc1ccc(NC(=O)N[C@H]2CC[C@@H](CCn3cc(-c4ccccn4)nn3)O[C@@H]2CO)cc1` the AC50 was 13.3 µM.
`CC(=O)NC(c1cccs1)c1cc([N+](=O)[O-])c2cccnc2c1O` (stereo not drawn) showed an AC50 of 2.71 µM.
With `C(=N\Nc1ccc2nncn2n1)/c1ccccn1` the AC50 was 14 µM.
`COc1cc(/C=N/Nc2nn3cnnc3c3ccccc23)ccc1O` showed an AC50 of 6.83 µM.
In the case of `Clc1ccc(-c2ccc(CNCc3ccccn3)o2)cc1`, the AC50 is reported as 20 µM.
`Nc1ccc2nc(-c3ccccn3)[nH]c2c1` was tested, and the AC50 was 10.1 µM.
With `COc1cccc(CNc2nc(-c3ccccn3)nnc2-c2ccccc2)c1` the AC50 was 0.794 µM.
For `COc1ccc(NC(=O)CSc2n[nH]c(-c3ccccn3)n2)cc1`, the AC50 was 0.963 µM.
`COc1ccc(Cc2nnc(N/N=C/c3ccccc3O)[nH]c2=O)cc1OC` showed an AC50 of 1.42 µM.
Work on `Oc1ccccc1C(Nc1nccs1)c1ccc2cccnc2c1O` (stereo not drawn) yielded an AC50 of 4.85 µM.
With `O=C(CSc1n[nH]c(-c2ccccn2)n1)Nc1ccc(F)cc1` the AC50 was 1.09 µM.
With `Cc1csc(NC(=O)CSc2ccc(-c3ccccn3)nn2)n1` the AC50 was 3.14 µM.
Work on `CN1CCN(C2CCN(Cc3ccc(O)c4ncccc34)CC2)CC1` yielded an AC50 of 2.3 µM.
In the case of `COc1cccc(/C=N/NC(=O)c2ccc3nc[nH]c3c2)c1O`, the AC50 is reported as 23.3 µM.
With `CCOC(=O)/C(=N/Nc1ccccc1OC)N1CCCc2ccccc21` the AC50 was 17.3 µM.
In the case of `c1ccc(-c2nnc(SCc3nc4ccccc4[nH]3)n2Cc2ccco2)nc1`, the AC50 is reported as 19.8 µM.
`NNc1ccc(S(=O)(=O)N2CCCCC2)cn1` was tested, and the AC50 was 9.17 µM.
`O=C(c1ccco1)[C@@H]1[C@@H]2C(=O)N(c3ccccc3)C(=O)[C@@H]2C2c3ccccc3C=CN21` (stereo partly drawn) was tested, and the AC50 was 45.9 µM.
With `COc1ccc(NC(=O)CSc2ccc3nnc(-c4ccccn4)n3n2)cc1` the AC50 was 26.2 µM.
`OCC1CCN(c2nc(-c3ccccn3)nnc2-c2ccccc2)CC1` was tested, and the AC50 was 1.03 µM.
In the case of `CCCn1nc(C(=O)Nc2nc(-c3ccccn3)cs2)c2ccccc2c1=O`, the AC50 is reported as 9.63 µM.
`O=C(Nc1nc(-c2ccccn2)cs1)c1ccco1` showed an AC50 of 2.17 µM.
With `O=C(CSc1ccc(-c2ccccn2)nn1)NCc1ccc(Cl)cc1` the AC50 was 11 µM.
Compound `Cc1cc(C)c2nc(C)cc(N/N=C/c3ccc(O)cc3)c2c1` has an AC50 of 37.3 µM.
Work on `CC1CCN(S(=O)(=O)c2ccc(C(=O)Nc3nnc(C4=COCCO4)o3)cc2)CC1` yielded an AC50 of 1.21 µM.
`Oc1ccc(/C=N/Nc2ccc(Cl)nn2)c(O)c1O` was tested, and the AC50 was 0.702 µM.
With `O=C(N/N=C/C=C/c1ccco1)c1cnccn1` the AC50 was 55.4 µM.
For `Cc1cccc(C)c1Nc1c(-c2ccccn2)nc2ccccn12`, the AC50 was 8.6 µM.
With `CCc1ccc2c(c1)C1(NN=C(c3ccc(C)cc3)S1)C(=O)N2` (stereo not drawn) the AC50 was 1.52 µM.
Work on `O=C(N/N=C/c1ccccc1O)C1SCCCS1` yielded an AC50 of 22.6 µM.
Compound `O=c1[nH]c(O)c(N=Nc2cc([N+](=O)[O-])ccc2O)c(=O)[nH]1` has an AC50 of 25.5 µM.
Compound `Oc1cc(Nc2ccncc2)cc2cccnc12` has an AC50 of 0.676 µM.
`O=C(CCS(=O)(=O)c1ccc(F)cc1)Nc1nc(-c2ccccn2)cs1` showed an AC50 of 6.22 µM.
In the case of `O=C(CN1CC(=O)Oc2ccccc21)OCC(=O)c1ccccc1`, the AC50 is reported as 1.1 µM.
With `c1ccc(-c2nnc(-c3ccccn3)nc2NCC2CC2)cc1` the AC50 was under 0.5 µM.
